{"source": "patent US20190111059A1", "about": "“COMPOSITIONS AND METHODS FOR TREATING AUTISM SPECTRUM DISORDER” (Marinus Pharmaceuticals, Inc., priority 2017, published 2019)", "system": "children with non-syndromic autism spectrum disorder (ASD) and language impairment", "test": "Randomized double-blind placebo-controlled trial: verbal communication (CELF-preschool-2, CELF-4, PLS-5), primary outcome", "type": "in vivo, human", "details": "for Verbal communication, effect size (Cohen's d) / Verbal communication, estimated effect vs placebo / Verbal communication, 12 weeks: 2 mg kg^−1 per day; for Verbal communication, effect size (Cohen's d) / Verbal communication, estimated effect vs placebo / % Difference responders (folinic acid vs placebo) / Adjusted odds ratio of response / Number needed to treat / Unadjusted odds ratio of response / % responders / Number of responders (increase in five standardized points, verbal communication): 12 weeks; for Verbal communication, estimated effect vs placebo: mixed-model regression", "protocol": "We sought to determine whether high-dose folinic acid improves verbal communication in children with non-syndromic autism spectrum disorder (ASD) and language impairment in a double-blind placebo control setting. Forty-eight children (mean age 7 years 4 months; 82% male) with ASD and language impairment were randomized to receive 12 weeks of high-dose folinic acid (2 mg kg^-1 per day, maximum 50 mg per day; n=23) or placebo (n=25). Children were subtyped by glutathione and folate receptor-α autoantibody (FRAA) status. […] FRAA status was predictive of response to treatment. […] 2012 to 22 Nov. 2013. Participants who met inclusion and exclusion criteria were screened for language impairment. Preverbal (<25 functional words) children qualified as language impaired. Otherwise, the age-appropriate version of the Clinical Evaluation of Language Fundamentals (CELF) confirmed language impairment. Language impairment was defined as a core standardized score<85 if the preschool version was used or failure on the CELF screener if other versions were used. Those confirmed to have language impairment were randomized to the folinic acid or placebo group and a fasting blood sample was obtained. Randomization was performed using a random number generator with a block size of four. The research pharmacists had exclusive access to the randomization allocation. After breakfast, the participants returned for language, developmental and behavioral assessments. Following these assessments the family was given the 12 weeks of the intervention and was instructed on its administration. Language, developmental and behavioral assessments were repeated after 12 weeks of treatment. The target dose of the intervention (INN: DL folinic acid calcium salt; USAN: leucovorin calcium) was 2 mg kg^-1 per day (maximum 50 mg per day) in two equally divided doses with half of the target dose given during the first 2 weeks. Dye-free, milk-product-free, vegetarian capsules were provided in three strengths (5, 10 and 25 mg) by Lee Silsby Compounding Pharmacy (Cleveland Heights, Ohio, USA). Certificate of analysis was provided for each capsule strength by an independent analytical service (Eagle Analytical Services, Houston, Tex., USA) for each batch of capsules produced. In all cases, potency was at least 99%. Primary outcome. Verbal communication was the primary outcome for several reasons. First, verbal communication improved in preliminary folinic acid treatment studies. Second, verbal communication in children with ASD is closely linked to parental quality of life. Third, the development of language and communication skills is associated with favorable outcomes. Instruments used were the CELF-preschool-2, CELF-4 and the Preschool Language Scale-5 (PLS-5). The standardized summary score of each instrument (mean 100, standard deviation 15) was the primary outcome measure and ranges from 50 to 150 for the PLS-5 and 45 to 155 for the CELF. The ability-appropriate instrument was selected using a structured algorithm. The goal was to select an instrument with an adequate dynamic range for assessing improvement in verbal communication. The assessment started with the most age-appropriate instrument. If the child obtained a score at the floor, the next lower ability instrument was then used. This process was repeated until a score above the floor could be obtained. The score from the final instrument was the primary outcome measure at baseline and at trial end. If the child's age exceeded the maximum age of the instrument's standardization, the maximum standardized age was used. At trial end, all instruments used during the baseline assessment were repeated in the same order to simulate the same baseline assessment experience and to minimize a potential confounder of cognitive fatigue. Studies have shown that early behavioral therapy improves verbal communication by one-standard deviation over 36 weeks. […]", "key": {"[1]": {"details": "antibody negative, folinic acid N = 10"}, "[2]": {"details": "antibody positive, folinic acid N = 13"}, "[3]": {"details": "glutathione high, folinic acid N = 14"}, "[4]": {"details": "glutathione low, folinic acid N = 9"}}, "note": "Where a name gives a salt, the structure may show the parent alone.", "data": [{"smiles": "Nc1nc2c(c(=O)[nH]1)N(C=O)C(CNc1ccc(C(=O)N[C@@H](CCC(=O)O)C(=O)O)cc1)CN2", "note": "(mixture of isomers) [Folinic acid, DL folinic acid calcium salt]", "values": [{"measurement": "Verbal communication, effect size (Cohen's d)", "setting": "FRAA antibody negative N=17", "value": 0.30}, {"measurement": "Verbal communication, estimated effect vs placebo", "setting": "FRAA antibody negative N=17, calcium salt", "value": 2.5, "unit": "standardized score"}, {"measurement": "Verbal communication, estimated effect vs placebo", "setting": "FRAA antibody negative N=17, listed as folinic acid, calcium salt", "value": "not significantly different"}, {"measurement": "Verbal communication, effect size (Cohen's d)", "setting": "FRAA antibody positive N=31", "value": 0.91}, {"measurement": "Verbal communication, estimated effect vs placebo", "setting": "FRAA antibody positive N=31, calcium salt", "value": 7.3, "unit": "standardized score"}, {"measurement": "Verbal communication, effect size (Cohen's d)", "setting": "glutathione redox ratio high N=24", "value": 0.46}, {"measurement": "Verbal communication, estimated effect vs placebo", "setting": "glutathione redox ratio high N=24, calcium salt", "value": 3.0, "unit": "standardized score"}, {"measurement": "Verbal communication, estimated effect vs placebo", "setting": "glutathione redox ratio high N=24, listed as folinic acid, calcium salt", "value": "not significantly different"}, {"measurement": "Verbal communication, effect size (Cohen's d)", "setting": "glutathione redox ratio low N=24", "value": 0.95}, {"measurement": "Verbal communication, estimated effect vs placebo", "setting": "glutathione redox ratio low N=24, calcium salt", "value": 9.1, "unit": "standardized score"}, {"measurement": "Verbal communication, estimated effect vs placebo", "setting": "glutathione redox ratio low N=24, listed as folinic acid, calcium salt", "value": "significantly greater"}, {"measurement": "Verbal communication, effect size (Cohen's d)", "setting": "overall N=48", "value": 0.70}, {"measurement": "Verbal communication, estimated effect vs placebo", "setting": "overall N=48, calcium salt", "value": 5.7, "unit": "standardized score"}, {"measurement": "Verbal communication, 12 weeks", "setting": "FRAA antibody negative, baseline 57.9", "value": 64.5, "unit": "standardized score"}, {"measurement": "Verbal communication, 12 weeks", "setting": "FRAA antibody positive, baseline 58.1", "value": 66.1, "unit": "standardized score"}, {"measurement": "Verbal communication, 12 weeks", "setting": "glutathione redox ratio high, baseline 59.2", "value": 65.0, "unit": "standardized score"}, {"measurement": "Verbal communication, 12 weeks", "setting": "glutathione redox ratio low, baseline 56.1", "value": 66.0, "unit": "standardized score"}, {"measurement": "Verbal communication, 12 weeks", "setting": "overall, baseline 58.1", "value": 65.4, "unit": "standardized score"}, {"measurement": "% Difference responders (folinic acid vs placebo)", "setting": "antibody negative", "value": 21, "unit": "%"}, {"measurement": "Adjusted odds ratio of response", "setting": "antibody negative", "value": 3.6}, {"measurement": "Number needed to treat", "setting": "antibody negative", "value": 4.7}, {"measurement": "Unadjusted odds ratio of response", "setting": "antibody negative", "value": 2.5}, {"measurement": "% responders", "setting": "[1]", "value": 50, "unit": "%"}, {"measurement": "Number of responders (increase in five standardized points, verbal communication)", "setting": "[1]", "value": 5}, {"measurement": "% Difference responders (folinic acid vs placebo)", "setting": "antibody positive", "value": "55% (19%,"}, {"measurement": "Adjusted odds ratio of response", "setting": "antibody positive", "value": 67.4}, {"measurement": "Number needed to treat", "setting": "antibody positive", "value": 1.8}, {"measurement": "Unadjusted odds ratio of response", "setting": "antibody positive", "value": 11.7}, {"measurement": "% responders", "setting": "[2]", "value": 77, "unit": "%"}, {"measurement": "Number of responders (increase in five standardized points, verbal communication)", "setting": "[2]", "value": 10}, {"measurement": "% Difference responders (folinic acid vs placebo)", "setting": "glutathione high", "value": "34% (−4%,"}, {"measurement": "Adjusted odds ratio of response", "setting": "glutathione high", "value": 21.9}, {"measurement": "Number needed to treat", "setting": "glutathione high", "value": 2.9}, {"measurement": "Unadjusted odds ratio of response", "setting": "glutathione high", "value": 4.2}, {"measurement": "% responders", "setting": "[3]", "value": 64, "unit": "%"}, {"measurement": "Number of responders (increase in five standardized points, verbal communication)", "setting": "[3]", "value": 9}, {"measurement": "% Difference responders (folinic acid vs placebo)", "setting": "glutathione low", "value": "47% (10%,"}, {"measurement": "Adjusted odds ratio of response", "setting": "glutathione low", "value": 10.2}, {"measurement": "Number needed to treat", "setting": "glutathione low", "value": 2.1}, {"measurement": "Unadjusted odds ratio of response", "setting": "glutathione low", "value": 8.0}, {"measurement": "% responders", "setting": "[4]", "value": 67, "unit": "%"}, {"measurement": "Number of responders (increase in five standardized points, verbal communication)", "setting": "[4]", "value": 6}, {"measurement": "Adjusted odds ratio of response", "setting": "overall", "value": 14.9}, {"measurement": "Number needed to treat", "setting": "overall", "value": 2.4}, {"measurement": "Unadjusted odds ratio of response", "setting": "overall", "value": 5.9}, {"measurement": "% responders", "setting": "overall, folinic acid N = 23", "value": 65, "unit": "%"}, {"measurement": "Number of responders (increase in five standardized points, verbal communication)", "setting": "overall, folinic acid N = 23", "value": 15}, {"measurement": "% Difference responders (folinic acid vs placebo)", "setting": "overall, calcium salt", "value": "41% (13%,"}, {"measurement": "% Difference responders (folinic acid vs placebo)", "setting": "overall, listed as folinic acid, calcium salt", "value": "significantly more responders"}]}]}
